According to BindingDB's records for doi:10.1021/acsmedchemlett.0c00203 (University of Texas Md Anderson Cancer Center, 2020):

Columns and labels:
[1] = Inhibition of ENO1 in wild-type human LN319 cells incubated for 5 days in presence of 21 % oxygen by crystal violet staining based spectrophotometry
[2] = Inhibition of ENO1 in wild-type human LN319 cells incubated for 5 days in presence of 1 % oxygen by crystal violet staining based spectrophotometry
[3] = Inhibition of ENO1 in overexpressed human D423 cells incubated for 5 days by crystal violet staining based spectrophotometry
[4] = Inhibition of ENO1 in wild-type human LN319 cells incubated for 5 days by crystal violet staining based spectrophotometry
[5] = Inhibition of ENO1 in overexpressed human D423 cells incubated for 5 days in presence of 1 % oxygen by crystal violet staining based spectrophotometry
[6] = Inhibition of ENO1 in overexpressed human D423 cells incubated for 5 days in presence of 21 % oxygen by crystal violet staining based spectrophotometry

`CC(C)(C)C(=O)OCOP(=O)(OCOC(=O)C(C)(C)C)C1CCCN(O)C1=O` (configuration not stated) gave an IC50 [1] of 2.41 µM, an IC50 [2] of 1810 nM and an IC50 [3] of 0.604 µM. It also gave an IC50 [4] of 2.15 µM, an IC50 [5] of 2810 nM and an IC50 [6] of 720 nM.

For `CC(C)(C)C(=O)OCOP(=O)(NCc1ccccc1)C1CCCN(O)C1=O` (configuration not stated), the IC50 [3] was 3.95 µM and the IC50 [4] was 4.02 µM.

In the case of `CC(=O)ON1CCCC(P(=O)(NCc2ccccc2)OCc2ccc([N+](=O)[O-])o2)C1=O` (configuration not stated), the IC50 [1] is reported as 21.1 µM, the IC50 [5] is reported as 5760 nM and the IC50 [6] is reported as 25900 nM.

With `Cn1c(COP(=O)(NCCBr)NCCBr)cnc1[N+](=O)[O-]` [Evofosfamide] the IC50 [1] was 4.84 µM, the IC50 [2] was 897 nM and the IC50 [5] was 301 nM. The IC50 [6] was 2550 nM.

With `O=C1C(P(=O)(O)O)CCCN1O` (configuration not stated) the IC50 [3] was > 100 µM and the IC50 [4] was > 100 µM.
